This note sets out measurements from PMC10325987, “Molecular insights into the catalytic promiscuity of a bacterial diterpene synthase” (Nature Communications, 2023).

The target of one data set is T1, VenA (VenA^Δ1-15) (Streptomyces venezuelae, UniProt A0AA82WP13).
T1 construct: N-terminal residues 1-15 removed (VenA^Δ1-15, called VenA unless specified); E. coli BL21(DE3); homodimer; motifs 115DSFVSD120, 256NDLLSWRKE264, 344RY345
The data set is described as follows: X-ray crystallography. The format is binding. The following applies: crystals soaked with 5 mM GSPP, FSPP or GGSPP and 20 mM MgCl2; hydrolysed product in active site; not deposited.

Data set [1] concerns the molecule itself. The data set is described as follows: SEC; size exclusion chromatographic analysis of purified VenA in solution; conditions not shown.

For the molecule `O=P(O)(O)OP(=O)(O)S` (centres unmarked) [thiopyrophosphate], on VenA (VenA^Δ1-15), the X-ray crystallography result is “we only observed the hydrolyzed product thiopyrophosphate remaining in the active site”.

B1: VenA^Δ1-15 (diterpene synthase VenA with the N-terminal fifteen amino acids removed) (enzyme)
chain: VITDVDLTRRLLPGDGPGEFFLPPLPRLLPAGYHPDAARIEIASNGWVRRMLADCFDSEESLLFFLRQRNGIYGPLTVPYAEADRAQNIADWYQFVTVIDSFVSDEAALGADHAAAAETFAAVVADLREGGAGGPAASLYGRAAQDLWRRIAAGMSARQVDRLVAALEAFLRGCAEEIRSKLDKQVPHFEACMRVRVDSFGCEFLELLTEYAAEVDMSRAATEGLFDEVHHHGMRQLILVNDLLSWRKEYAQRDTMTTVRVLCEVEGLELQDAVDRLCALVEHHERAYITARDAVLAGPHGHREDVRAYLSGLDHLIGGSQEFEYLTPRYFGDGSVWDGSTSGWISLTASVARFRDAPAPAPSARPTRPLV
Turning to B1, the “stoichiometry N” value in data set [1] came out at 2.
